The results in this text go back to paper PMC3948749, “Engineering of Pyranose Dehydrogenase for Increased Oxygen Reactivity” (PLoS ONE, 2014).

Assay [1] addresses T1, AmPDH (Agaricus meleagris pyranose dehydrogenase, pdh1) (Macropsalliota meleagris, UniProt Q3L245, H128Y).
T1 construct: monomeric glycoprotein about 90 kDa, 64 kDa deglycosylated
The experiment in a line: steady-state kinetics, ferrocenium assay. It is filed as biochemical. The conditions noted are these: apparent; electron acceptor; 25 mM D-glucose as donor; pH 8.5; 30 °C; read-out: H103Y / K m /. From the text:
steady-state kinetics, ferrocenium assay on AmPDH (Agaricus meleagris pyranose dehydrogenase, pdh1)

Assay [2] addresses T2, AmPDH (Agaricus meleagris pyranose dehydrogenase, pdh1) (Macropsalliota meleagris, UniProt Q3L245).
T2 construct: monomeric glycoprotein about 90 kDa, 64 kDa deglycosylated
The assay can be described thus: UV-vis spectra before and after TCA/acetone precipitation. The conditions noted are these: covalent (to H103); pH 7.5 spectra. It is filed as binding.

Assay [3] deals with T1, AmPDH (Agaricus meleagris pyranose dehydrogenase, pdh1). The assay is described as above. It is filed as binding. The conditions noted are these: non-covalent, tightly bound; pH 7.5 spectra.
The target is the same in assay [4]. The experiment in a line: steady-state kinetics. It is filed as biochemical. The conditions noted are these: apparent; electron acceptor; 25 mM D-glucose as donor; pH 4; 30 °C; read-out: H103Y / K m /. The text has this:
steady-state kinetics on AmPDH (Agaricus meleagris pyranose dehydrogenase, pdh1)

T1 sequence (Q3L245 26-602 H128Y): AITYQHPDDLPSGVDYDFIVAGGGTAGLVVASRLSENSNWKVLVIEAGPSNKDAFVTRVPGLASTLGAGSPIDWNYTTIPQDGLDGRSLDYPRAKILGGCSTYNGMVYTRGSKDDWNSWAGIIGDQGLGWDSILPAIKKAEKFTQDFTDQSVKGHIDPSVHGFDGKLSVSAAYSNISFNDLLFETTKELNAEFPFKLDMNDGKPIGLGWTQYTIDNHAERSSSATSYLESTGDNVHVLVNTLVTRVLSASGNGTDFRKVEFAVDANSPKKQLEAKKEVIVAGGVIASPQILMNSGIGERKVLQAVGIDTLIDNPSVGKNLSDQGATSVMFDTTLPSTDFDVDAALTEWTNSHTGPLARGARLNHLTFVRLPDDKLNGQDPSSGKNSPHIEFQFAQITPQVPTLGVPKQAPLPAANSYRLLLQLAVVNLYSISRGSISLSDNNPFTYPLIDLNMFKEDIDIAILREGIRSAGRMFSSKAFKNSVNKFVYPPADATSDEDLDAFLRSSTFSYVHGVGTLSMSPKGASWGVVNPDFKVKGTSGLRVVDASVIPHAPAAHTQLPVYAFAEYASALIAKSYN
T2 sequence (Q3L245 26-602): as the sequence (Q3L245 26-602 H128Y) above, with Y103H counted along it

Consider `F[P-](F)(F)(F)(F)F.[Fe+3].c1cc[cH-]c1.c1cc[cH-]c1` [Fc+PF6, ferrocenium hexafluorophosphate], for which the Km in assay [1] is 100 ± 10 µM.

For the compound `Cc1cc2nc3c(=O)[nH]c(=O)nc-3n(C[C@H](O)[C@H](O)[C@H](O)COP(=O)(O)OP(=O)(O)OC[C@H]3O[C@@H](n4cnc5c(N)ncnc54)[C@H](O)[C@@H]3O)c2cc1C` [FAD], the “UV-vis spectra before and after TCA/acetone precipitation” value in assay [2] was “the wild-type protein did not release the covalently bound FAD”; in assay [3], “the variant H103Y carries a tightly but non-covalently bound FAD cofactor”.

As for `O=C1C=CC(=O)C=C1` [1,4-BQ, 1,4-benzoquinone], the Km in assay [4] was 3640 ± 470 µM.
